In patent publication US20150183822A1, “ANGIOTENSIN-CONVERTING-ENZYME INHIBITING DIPEPTIDE” (YAMAKI Co., Ltd., priority 2012, published 2015):
Where two headings read alike, the source gives them in different places. One block for each compound: values may come before it. Where a SMILES comes first, the peptide text is derived from it.

Molecular target: T1, angiotensin converting enzyme (ACE) (Oryctolagus cuniculus, UniProt P12822)
T1 construct: resulting supernatant was purified with hydroxyapatite to obtain 1 unit/mg protein of angiotensin converting enzyme liquid; tissue Sigma Co., Ltd. (alternative source); host or cells: rabbit lung (acetone powder extract purified with hydroxyapatite)
T1 sequence (P12822 34-1310): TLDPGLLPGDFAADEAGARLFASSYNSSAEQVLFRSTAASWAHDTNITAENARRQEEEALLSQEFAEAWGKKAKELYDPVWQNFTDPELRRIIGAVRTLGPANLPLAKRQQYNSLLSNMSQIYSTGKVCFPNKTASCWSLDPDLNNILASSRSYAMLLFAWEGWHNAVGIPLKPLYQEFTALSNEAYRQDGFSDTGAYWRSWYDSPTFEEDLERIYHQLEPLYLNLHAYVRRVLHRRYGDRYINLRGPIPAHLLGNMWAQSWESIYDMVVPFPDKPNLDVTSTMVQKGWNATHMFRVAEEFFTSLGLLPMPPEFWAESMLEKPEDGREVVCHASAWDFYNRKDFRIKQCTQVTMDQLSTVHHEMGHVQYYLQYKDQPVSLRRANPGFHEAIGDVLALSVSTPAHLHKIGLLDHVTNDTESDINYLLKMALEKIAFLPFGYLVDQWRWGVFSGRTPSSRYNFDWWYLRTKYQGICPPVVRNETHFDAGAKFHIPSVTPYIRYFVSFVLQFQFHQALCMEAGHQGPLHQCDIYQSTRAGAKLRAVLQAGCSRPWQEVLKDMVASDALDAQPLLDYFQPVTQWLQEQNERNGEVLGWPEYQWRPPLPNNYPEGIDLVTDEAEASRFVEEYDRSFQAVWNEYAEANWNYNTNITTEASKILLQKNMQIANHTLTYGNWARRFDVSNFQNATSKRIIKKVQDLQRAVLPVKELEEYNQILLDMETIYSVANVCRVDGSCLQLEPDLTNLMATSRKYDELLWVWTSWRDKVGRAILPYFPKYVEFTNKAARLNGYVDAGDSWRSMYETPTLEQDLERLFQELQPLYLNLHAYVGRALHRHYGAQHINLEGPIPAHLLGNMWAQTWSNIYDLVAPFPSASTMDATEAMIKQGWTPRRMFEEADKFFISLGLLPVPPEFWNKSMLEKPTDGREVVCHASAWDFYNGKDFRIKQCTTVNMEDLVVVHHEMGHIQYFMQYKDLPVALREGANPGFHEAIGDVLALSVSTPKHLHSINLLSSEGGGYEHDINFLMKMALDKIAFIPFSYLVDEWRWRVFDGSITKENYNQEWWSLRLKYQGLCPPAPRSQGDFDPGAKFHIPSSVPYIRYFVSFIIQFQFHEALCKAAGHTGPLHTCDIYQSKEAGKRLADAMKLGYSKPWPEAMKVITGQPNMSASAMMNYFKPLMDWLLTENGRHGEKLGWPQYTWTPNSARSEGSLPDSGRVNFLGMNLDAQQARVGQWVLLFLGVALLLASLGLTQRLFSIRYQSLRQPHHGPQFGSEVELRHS
Assay: ACE inhibitory activity (Test Example 1, Cheung and Cushman's method, hippuryl histidyl leucine substrate)
Format: biochemical, rabbit
Conditions: for The contribution rate in KATSUOBUSHI peptide: contribution of each dipeptide in KATSUOBUSHI peptide; for ACE inhibitory activity value, comparison in words: comparison among dipeptides of Table 30
Description: ACE inhibitory activity was measured as below.
5 g of rabbit lung acetone powder was dissolved in 50 mL of 0.1M sodium borate buffer (pH8.3), centrifuged under the condition of 40000G and for 40 minutes and resulting supernatant was purified with hydroxyapatite to obtain 1 unit/mg protein of angiotensin converting enzyme liquid. Purified ACE derived from rabbit lung (Sigma Co., Ltd., 0.25 unit), alternatively, was used.
0.030 mL of the various concentrations of the dipeptide composition solutions were taken into test tubes, respectively, and then, 0.1 mL of the angiotensin converting enzyme liquid as above was added into the test tubes to react with the composition at 37° C. for 5 minutes. Subsequently, 0.25 mL of hippuryl histidyl leucine (PEPTIDE Lab., Bz-Gly-His-Leu.H2O, the final concentration of 5 mM, including 300 mM of NaCl) as a substrate was added to the test tubes to react with the enzyme at 37° C. for 30 minutes. 0.25 mL of 1N hydrochloric acid, then, was added to the test tube to terminate the reaction, 1.5 mL of ethyl acetate was added to the test tube and stirred with the vortex mixer for 20 seconds, followed by centrifuging (3000 rotations, for 5 minutes) and 1 mL of ethyl acetate layer was isolated.
The inhibitory rate was calculated according to the following formula.
The inhibitory=[1−(A−a)/(B−b)]×100

[1] = isolated peptides, Table 11, read-out: ACE inhibitory activity (IC50: μM)
[2] = Table 30, dipeptides of the invention and other dipeptides, read-out: ACE inhibitory value IC50
[3] = isolated peptides, Table 10, read-out: ACE inhibitory activity (IC50: μM)
[4] = isolated peptides, Table 9, read-out: ACE inhibitory activity (IC50: μM)

Structure (SMILES): C[C@H](N)C(=O)N[C@@H](Cc1c[nH]c2ccccc12)C(=O)O [Alanine-tryptophan, alanine-tryptophan] (H-Ala-Trp-OH; N-terminus and C-terminus assumed)
contribution rate in KATSUOBUSHI peptide, in words: high
The contribution rate in KATSUOBUSHI peptide: 0.672%
IC50 [1]: 10 µM

Structure (SMILES): NC(=O)C[C@H](N)C(=O)N[C@@H](Cc1c[nH]c2ccccc12)C(=O)O [Asparagine-tryptophan, asparagine-tryptophan] (H-Asn-Trp-OH; N-terminus and C-terminus assumed)
The contribution rate in KATSUOBUSHI peptide: 0.099%

Structure (SMILES): NC(=O)CC[C@H](N)C(=O)N[C@@H](Cc1c[nH]c2ccccc12)C(=O)O [Glutamine-tryptophan, glutamine-tryptophan] (H-Gln-Trp-OH; N-terminus and C-terminus assumed)
The contribution rate in KATSUOBUSHI peptide: 0.048%
IC50 [1]: 32.6 µM

Structure (SMILES): NCC(=O)N[C@@H](Cc1c[nH]c2ccccc12)C(=O)O [Glycine-tryptophan, glycine-tryptophan] (H-Gly-Trp-OH)
The contribution rate in KATSUOBUSHI peptide: 0.366%
IC50 [1]: 30 µM

Structure (SMILES): CC[C@H](C)[C@H](N)C(=O)N[C@@H](Cc1ccccc1)C(=O)O [Isoleucine-phenylalanine, reference compound] (H-Ile-Phe-OH; N-terminus and C-terminus assumed)
IC50 [2]: 930 µM

Structure (SMILES): CC[C@H](C)[C@H](N)C(=O)N[C@@H](Cc1c[nH]c2ccccc12)C(=O)O [Isoleucine-tryptophan, isoleucine-tryptophan]
contribution rate in KATSUOBUSHI peptide, in words: high
ACE inhibitory activity value, comparison in words: much higher value than the other dipeptides
The contribution rate in KATSUOBUSHI peptide: 2.040%
IC50 [3]: 2 µM

Structure (SMILES): CC(C)C[C@H](N)C(=O)N[C@@H](Cc1c[nH]c2ccccc12)C(=O)O [Leucine-tryptophan, leucine-tryptophan]
IC50 [4]: 23 µM

Structure (SMILES): CSCC[C@H](N)C(=O)N[C@@H](Cc1c[nH]c2ccccc12)C(=O)O [Methionine-tryptophan, methionine-tryptophan] (H-Met-Trp-OH; N-terminus and C-terminus assumed)
ACE inhibitory activity value, comparison in words: much higher value than the other dipeptides
The contribution rate in KATSUOBUSHI peptide: 0.343%
IC50 [3]: 3.8 µM

Structure (SMILES): N[C@@H](CO)C(=O)N[C@@H](Cc1c[nH]c2ccccc12)C(=O)O [Serine-tryptophan, serine-tryptophan] (H-Ser-Trp-OH; N-terminus and C-terminus assumed)
The contribution rate in KATSUOBUSHI peptide: 0.099%
IC50 [1]: 22.1 µM

Structure (SMILES): CC(C)[C@H](N)C(=O)N[C@@H](Cc1c[nH]c2ccccc12)C(=O)O [Valine-tryptophan, valine-tryptophan] (H-Val-Trp-OH)
contribution rate in KATSUOBUSHI peptide, in words: high
ACE inhibitory activity value, comparison in words: much higher value than the other dipeptides
The contribution rate in KATSUOBUSHI peptide: 4.031%

The next lines start with the values.

IC50 [4]: 580 µM
Structure (SMILES): NC(=O)C[C@H](NC(=O)[C@@H](N)Cc1c[nH]c2ccccc12)C(=O)O [Tryptophan-asparagine, tryptophan-asparagine] (H-Trp-Asn-OH; N-terminus and C-terminus assumed)

IC50 [4]: 33.1 µM
Structure (SMILES): CC[C@H](C)[C@H](NC(=O)[C@@H](N)Cc1c[nH]c2ccccc12)C(=O)O [Tryptophan-isoleucine, tryptophan-isoleucine] (H-Trp-Ile-OH; N-terminus and C-terminus assumed)

IC50 [4]: 25.1 µM
Structure (SMILES): CC(C)C[C@H](NC(=O)[C@@H](N)Cc1c[nH]c2ccccc12)C(=O)O [Tryptophan-leucine, tryptophan-leucine] (H-Trp-Leu-OH; N-terminus and C-terminus assumed)

The contribution rate in KATSUOBUSHI peptide: 0.054%
IC50 [3]: 36.5 µM
Structure (SMILES): CSCC[C@H](NC(=O)[C@@H](N)Cc1c[nH]c2ccccc12)C(=O)O [Tryptophan-methionine, tryptophan-methionine] (H-Trp-Met-OH)

The contribution rate in KATSUOBUSHI peptide: 0.021%
IC50 [3]: 57 µM
Structure (SMILES): N[C@@H](Cc1c[nH]c2ccccc12)C(=O)N[C@@H](Cc1ccc(O)cc1)C(=O)O [Tryptophan-tyrosine, tryptophan-tyrosine] (H-Trp-Tyr-OH; N-terminus and C-terminus assumed)

IC50 [2]: 420 µM
Structure (SMILES): CC(C)[C@H](N)C(=O)N1CCC[C@H]1C(=O)O [Valine-proline, reference compound] (H-Val-Pro-OH)

IC50 [4]: 11 µM
Structure (SMILES): CC(C)[C@H](N)C(=O)N[C@@H](Cc1ccc(O)cc1)C(=O)O [Valine-tyrosine, valine-tyrosine] (H-Val-Tyr-OH; N-terminus and C-terminus assumed)
